Data on 13 compounds can be found in ChEMBL document CHEMBL2057161, “Synthesis and evaluation of nitric oxide-releasing DDB derivatives as potential Pgp-mediated MDR reversal agents in MCF-7/Adr cells” (Bioorg Med Chem Lett, 2012).

The subject of one data set is HepG2. The data set can be described thus: Antiproliferative activity against human HepG2 cells after 48 hrs by MTT assay. The format is functional, cell-based. Particulars: HepG2, 48 h.
Another data set concerns MCF7. The data set can be described thus: Antiproliferative activity against human MCF7 up to 25 uM cells after 48 hrs by MTT assay. The format is functional, cell-based.
The subject of data set [1] is NCI/ADR-RES. Description: Antiproliferative activity against human MCF7/ADR up to 25 uM cells after 48 hrs by MTT assay. The format is functional, cell-based.
The target of data set [2] is T1, ATP-dependent translocase ABCB1 (Homo sapiens, UniProt P08183). Description: Inhibition of P-glycoprotein in human MCF7 assessed as increase in doxorubicin accumulation at 25 uM incubated for 1.5 hrs prior to doxorubicin treatment measured after 1.5 hrs by HPLC analysis in presence of hemoglobin. The note with it: mcf7, 1.5 h.
T1 sequence (P08183 whole entry): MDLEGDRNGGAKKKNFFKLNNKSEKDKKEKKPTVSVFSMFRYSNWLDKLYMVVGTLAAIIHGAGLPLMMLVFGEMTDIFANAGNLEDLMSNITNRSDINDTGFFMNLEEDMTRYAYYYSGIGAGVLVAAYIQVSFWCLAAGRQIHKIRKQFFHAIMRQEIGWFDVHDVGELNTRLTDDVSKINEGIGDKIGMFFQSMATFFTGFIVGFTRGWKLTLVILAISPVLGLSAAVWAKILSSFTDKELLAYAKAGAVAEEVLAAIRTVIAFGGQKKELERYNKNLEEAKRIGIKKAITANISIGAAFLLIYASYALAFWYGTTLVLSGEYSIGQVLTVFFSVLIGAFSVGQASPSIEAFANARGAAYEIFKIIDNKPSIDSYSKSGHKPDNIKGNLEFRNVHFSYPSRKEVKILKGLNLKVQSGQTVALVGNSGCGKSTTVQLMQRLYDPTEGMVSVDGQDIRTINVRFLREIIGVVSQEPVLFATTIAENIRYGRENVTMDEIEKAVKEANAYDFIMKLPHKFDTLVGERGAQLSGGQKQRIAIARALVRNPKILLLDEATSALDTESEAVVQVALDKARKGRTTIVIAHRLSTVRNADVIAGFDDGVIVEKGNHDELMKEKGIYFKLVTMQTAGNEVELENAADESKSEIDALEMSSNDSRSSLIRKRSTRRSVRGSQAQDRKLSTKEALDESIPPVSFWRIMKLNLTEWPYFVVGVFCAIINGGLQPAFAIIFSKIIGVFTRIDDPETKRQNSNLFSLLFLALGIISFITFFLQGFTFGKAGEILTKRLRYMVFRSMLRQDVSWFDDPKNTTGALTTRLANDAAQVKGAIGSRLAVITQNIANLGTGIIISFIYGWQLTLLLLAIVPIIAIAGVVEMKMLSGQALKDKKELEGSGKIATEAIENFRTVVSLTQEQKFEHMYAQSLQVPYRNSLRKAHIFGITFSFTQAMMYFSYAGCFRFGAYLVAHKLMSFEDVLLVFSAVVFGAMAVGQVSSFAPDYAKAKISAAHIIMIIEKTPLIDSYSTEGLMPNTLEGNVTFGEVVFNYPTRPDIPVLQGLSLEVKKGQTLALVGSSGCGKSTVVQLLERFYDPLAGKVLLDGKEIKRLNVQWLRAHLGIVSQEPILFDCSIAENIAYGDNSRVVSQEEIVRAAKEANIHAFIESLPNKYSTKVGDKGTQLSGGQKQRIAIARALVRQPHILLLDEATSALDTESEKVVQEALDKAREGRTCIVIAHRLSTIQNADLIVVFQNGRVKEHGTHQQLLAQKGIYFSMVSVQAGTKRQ
Data set [3] concerns the target T1, ATP-dependent translocase ABCB1. The data set can be described thus: Inhibition of P-glycoprotein in human MCF7/ADR cells assessed as potentiation of doxorubicin antiproliferative activity after 48 hrs by MTT assay. The format is cell-based. Particulars: nci/adr-res.
For data set [4] the target is unchanged. The data set can be described thus: Inhibition of P-glycoprotein in human MCF7 assessed as increase in doxorubicin accumulation at 25 uM incubated for 1.5 hrs prior to doxorubicin treatment measured after 1.5 hrs by HPLC analysis. The note with it: mcf7, 1.5 h.
Data set [5] has the same target. The data set can be described thus: Inhibition of P-glycoprotein overexpressed in human MCF7/ADR cells assessed as increase in doxorubicin accumulation at 25 uM incubated for 1.5 hrs prior to doxorubicin treatment measured after 1.5 hrs by HPLC analysis. The format is cell-based. The note with it: nci/adr-res.
Data set [6] shares this target. The data set can be described thus: Inhibition of P-glycoprotein overexpressed in human Caco2 cells assessed as increase in digoxin permeability at 25 uM incubated for 90 mins prior to digoxin treatment measured after 90 mins by LC/MS/MS analysis. The format is cell-based. Particulars: caco-2, 1.5 h.
Data set [7] shares this target. The data set can be described thus: Inhibition of P-glycoprotein overexpressed in human Caco2 cells assessed as increase in digoxin accumulation at 5 to 25 uM incubated for 1.5 hrs prior to digoxin treatment measured after 1.5 hrs by LC/MS/MS analysis in presence of hemoglobin. The note with it: caco-2, 1.5 h. The format is cell-based.
Data set [8] in a line: Downregulation of doxorubicin-induced P-glycoprotein expression in human MCF7/ADR cells at 25 uM after 48 hrs by Western blot analysis. The format is functional, cell-based. The note with it: NCI/ADR-RES.
Data set [9] has as its target T1, ATP-dependent translocase ABCB1. Description: Inhibition of P-glycoprotein overexpressed in human MCF7/ADR cells assessed as increase in doxorubicin accumulation at 25 uM incubated for 1.5 hrs prior to doxorubicin treatment measured after 1.5 hrs by HPLC analysis in presence of hemoglobin. Particulars: nci/adr-res. The format is cell-based.
In data set [10] the test system is NCI/ADR-RES. Description: Induction of nitric oxide release in human MCF7/ADR cells at 25 uM by Griess method. The format is functional, cell-based.
The target in data set [11] is T1, ATP-dependent translocase ABCB1. The data set can be described thus: Inhibition of P-glycoprotein overexpressed in human Caco2 cells assessed as decrease in digoxin efflux at 25 uM incubated for 90 mins prior to digoxin treatment measured after 90 mins by LC/MS/MS analysis. The note with it: caco-2, 1.5 h. The format is cell-based.

Activity calls are given as the source filed them. The calls are words filed in the database; no cut-off is given here.

For `COC(=O)c1cc(OC)c2c(c1-c1c(C(=O)NCCC(=O)OCCOCCOc3no[n+]([O-])c3S(=O)(=O)c3ccccc3)cc(OC)c3c1OCO3)OCO2`, the IC50 with HepG2 worked out at 1880 nM.
`O=c1[nH]cc(F)c(=O)[nH]1` [FLUOROURACIL] gave an IC50 in the data set with HepG2 of 15900 nM.
For `COC(=O)c1cc(OC)c2c(c1-c1c(C(=O)N[C@@H](C)C(=O)OCCCCOc3no[n+]([O-])c3S(=O)(=O)c3ccccc3)cc(OC)c3c1OCO3)OCO2`, the result with MCF7 and in the data set on NCI/ADR-RES [1] was inactive. Further, the “inhibition (INH)” value is reported as “Not Active” in data set [2]; “Dose-dependent effect” in [3]; “Not Active” in data set [4]; “Active” in data set [5]; “Active” in data set [6]; “Not Active” in data set [7]. The “inhibition (INH)” value in [9] is on record as “Not Active”; in data set [11], “Active”. Also, the IC50 with HepG2 is 1210 nM. The outcome (in [8]; in the data set on NCI/ADR-RES [10]) was Active.
On to `C[C@H](N)C(=O)OCCOCCOc1no[n+]([O-])c1S(=O)(=O)c1ccccc1`, for which, in [5], the “inhibition (INH)” value is recorded as “Active”.
In the case of `COC(=O)c1cc(OC)c2c(c1-c1c(C(=O)NCCC(=O)OC(C)(C)CCOc3no[n+]([O-])c3S(=O)(=O)c3ccccc3)cc(OC)c3c1OCO3)OCO2`, in the data set on HepG2, half-maximal inhibition (IC50) required 1360 nM.
Consider `COC(=O)c1cc(OC)c2c(c1-c1c(C(=O)N[C@@H](C)C(=O)OCCOCCOc3no[n+]([O-])c3S(=O)(=O)c3ccccc3)cc(OC)c3c1OCO3)OCO2`, for which the result in the data set on MCF7 and with NCI/ADR-RES [1] was inactive. Besides, the “inhibition (INH)” value in data set [2] is on record as “Not Active”; in data set [3], “Dose-dependent effect”; in data set [4], “Not Active”; in [5], “Active”; in data set [6] it was “Active”; in data set [7] it was “Not Active”. The “inhibition (INH)” value was “Not Active” in data set [9] and “Active” in data set [11]. Further, the IC50 in the data set on HepG2 turned out to be 1490 nM. Further, the result (in [8]; in the data set on NCI/ADR-RES [10]) was Active.
Turning to `COC(=O)c1cc(OC)c2c(c1-c1c(C(=O)NCCC(=O)NCCOc3no[n+]([O-])c3S(=O)(=O)c3ccccc3)cc(OC)c3c1OCO3)OCO2`, in the data set with HepG2, it took 1250 nM to reach half-maximal inhibition (IC50).
As to `C[C@H](N)C(=O)OCCCCOc1no[n+]([O-])c1S(=O)(=O)c1ccccc1`, the “inhibition (INH)” value in data set [5] is reported as “Active”.
As to `COC(=O)c1cc(OC)c2c(c1-c1c(C(=O)N[C@@H](C)C(=O)OCCCOc3no[n+]([O-])c3S(=O)(=O)c3ccccc3)cc(OC)c3c1OCO3)OCO2`, in the data set with HepG2, the IC50 is 1250 nM.
For the compound `COC(=O)c1cc(OC)c2c(c1-c1c(C(=O)NCCC(=O)OCCOc3no[n+]([O-])c3S(=O)(=O)c3ccccc3)cc(OC)c3c1OCO3)OCO2`, the IC50 in the data set on HepG2 is 1350 nM.
Take `COC(=O)c1cc(OC)c2c(c1-c1c(C(=O)NCCC(=O)OC(C)CCOc3no[n+]([O-])c3S(=O)(=O)c3ccccc3)cc(OC)c3c1OCO3)OCO2` (configuration not stated): the midpoint of inhibition in the data set with HepG2, the IC50, lay at 1150 nM.
With `COC(=O)c1cc(OC)c2c(c1-c1c(C(=O)NCCC(=O)OCCCCOc3no[n+]([O-])c3S(=O)(=O)c3ccccc3)cc(OC)c3c1OCO3)OCO2`, the IC50 with HepG2 came to 1360 nM.
In turn, `COC(=O)c1cc(OC)c2c(c1-c1c(C(=O)NCCC(=O)OCCCOc3no[n+]([O-])c3S(=O)(=O)c3ccccc3)cc(OC)c3c1OCO3)OCO2` displayed an IC50 in the data set on HepG2 of 1140 nM.
